{"source": "paper PMC7530896", "about": "(Journal of the American Chemical Society, 2020)", "key": {"UCHL1": {"tested_on": "UCHL1", "experiment": "Morpholino injections in zebrafish embryos, tail phenotype", "assay_type": "in vivo, zebrafish (Danio rerio)", "settings": "2 dpf zebrafish embryos, 2 ng morpholino"}, "PARK7": {"tested_on": "PARK7", "experiment": "Morpholino injections in zebrafish embryos, heart phenotype", "assay_type": "in vivo, zebrafish (Danio rerio)", "settings": "2 dpf zebrafish embryos"}, "[1]": {"target": "T1, purified recombinant human UCHL1 (Homo sapiens, UniProt P09936)", "T1 sequence (P09936 1-223)": "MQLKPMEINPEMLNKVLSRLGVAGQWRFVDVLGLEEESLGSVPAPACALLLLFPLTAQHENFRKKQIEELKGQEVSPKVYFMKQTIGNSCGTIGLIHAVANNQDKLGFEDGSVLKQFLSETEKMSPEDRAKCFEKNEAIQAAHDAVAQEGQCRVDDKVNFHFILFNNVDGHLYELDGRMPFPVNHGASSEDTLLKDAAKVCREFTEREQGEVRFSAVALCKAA", "experiment": "Probe labeling of purified recombinant UCHL1", "assay_type": "binding", "settings": "small-molecule probes: nondenaturing SDS-PAGE (no boiling, no β-mercaptoethanol)"}}, "data": [{"substance": "UCHL1MO1: morpholino targeting UCHL1, 5′-TATTTCCATCGGTTTCCACTCCATG-3′ (all phosphorodiamidate morpholino (PMO))", "values": [{"measurement": "Tail phenotype % curly tail", "setting": "UCHL1", "value": 53, "unit": "%"}]}, {"substance": "PARK7MO1: morpholino targeting PARK7 exon 2, 5′-TATGTAAAGTCAGACCTGTTTGTG-3′ (all phosphorodiamidate morpholino (PMO))", "values": [{"measurement": "abnormal enlarged heart phenotype", "setting": "PARK7", "value": "~18", "unit": "%"}]}, {"substance": "UCHL1MO2: morpholino targeting UCHL1 exon 4, 5′-GTTCCTTAAACATATCCACTTACCA-3′ (all phosphorodiamidate morpholino (PMO))", "values": [{"measurement": "Tail phenotype % curly tail", "setting": "UCHL1", "value": 79, "unit": "%"}]}, {"substance": "rhodamine-ubiquitin-propargylamide [Rh-Ub-PA]", "values": [{"measurement": "labeling of purified recombinant human UCHL1", "setting": "[1]", "value": "nearly all UCHL1 is labeled"}]}]}
